Measured values from patent publication US11419806B2, “Prebiotic oral care methods using a saccharide” (Colgate-Palmolive Company, priority 2013, dated 2022).

What was measured:
Assay in all cases: Twenty-four hour optical density growth in BHI
Format in all cases: cell-based
[1] = test system: Actinomyces viscosus; settings: A viscosus
Experimental: (§1) The extent of growth of the tested bacteria in response to selected saccharides (myo-inositol, D-lactitol, D-turanose and N-acetyl-D-mannosamine) was investigated by setting up growth curves in a nutritionally rich medium (brain heart infusion broth (BHI), Oxoid), over 24 hours. Late exponential growth phase liquid cultures were prepared by transferring the respective bacterium from blood agar plates to BHI and overnight incubation at 37° C. in an anaerobic atmosphere for A. viscosus, V. parvula, F. nucleatum, P. gingivalis, P. intermedia, T. forsythia, A. naeslundii, and C. sputigena, and in a 5% CO2 environment for S. salivarius, S. sanguinis, S. mitis, A. actinomycetemcomitans, S. mutans, S. sobrinus and S. gordonii. Overnight cultures were transferred to BHI and adjusted to a concentration of 1×10^7 CFU/ml (colony forming units per ml) by measuring the optical density at 600 nm (OD600) (BioRad SmartSpec 3000). For each strain, 200 μl of the bacterial suspension was added to a 96-well plate containing 20 μl of the respective saccharides. Final concentrations of the saccharides were set to 5, 10, 20 and 25 μmol/ml. […] Plates were incubated as previously described.
(§2) For each combination of bacterium/saccharide, and for each of their respective controls (i.e. the particular bacterium in the nutritionally rich medium with no saccharide), the optical density was measured at 630 nm (OD630) at 0 h and 24 h (Thermo Scientific Multiskan Ascent). Additionally, the OD630 for combinations of bacterium/saccharides grown in a 5% CO2 environment were also measured every hour between 0 h and 9 h.
(§3) The experiment was carried out on three different days (thus providing 3 biological replicas) and on each day the experiment was carried out in quadruple (thus providing 4 technical replicas) for each combination of bacterium with saccharide and for each control. For each day and for each combination, the average (mean) of the values obtained (as detailed above) for the four technical replicas was calculated to provide a single value for each combination on each day. The values shown in Tables 5a,b to 6a,b, below, are the average (mean) of the three single values obtained for each combination of bacterium with saccharide.

[2] = test system: Aggregatibacter actinomycetemcomitans; settings: A actinomycetemcomitans
Experimental: as §1, §2, §3

[3] = test system: Streptococcus mutans; settings: S mutans
Experimental: as §1, §2, §3

[4] = test system: Prevotella intermedia; settings: P intermedia
Experimental: as §1, §2, §3

[5] = test system: Streptococcus salivarius; settings: S salivarius
Experimental: as §1, §2, §3

[6] = test system: Fusobacterium nucleatum; settings: F nucleatum
Experimental: as §1, §2, §3

[7] = test system: Actinomyces naeslundii; settings: A naeslundii
Experimental: as §1, §2, §3

[8] = test system: Streptococcus gordonii; settings: S gordonii
Experimental: as §1, §2, §3

[9] = test system: Tannerella forsythia; settings: T forsythia
Experimental: as §1, §2, §3

[10] = test system: S. sanguinis
Experimental: as §1, §2, §3

[11] = test system: Porphyromonas gingivalis; settings: P gingivalis
Experimental: as §1, §2, §3

[12] = test system: Streptococcus sobrinus; settings: S sobrinus
Experimental: as §1, §2, §3

[13] = test system: Capnocytophaga sputigena; settings: C sputigena
Experimental: as §1, §2, §3

[14] = test system: Veillonella parvula; settings: V parvula
Experimental: as §1, §2, §3

[15] = test system: Streptococcus mitis; settings: S mitis
Experimental: as §1, §2, §3

O[C@H]1[C@H](O)[C@@H](O)[C@H](O)[C@@H](O)[C@H]1O [Myo-Inositol, (1R,2R,3S,4S,5R,6S)-cyclohexane-1,2,3,4,5,6-hexol]
extent of growth: maximal OD630 over 24 hr divided by maximal OD of control (control = 1) ([1]; 5 μmol/ml): 0.8442
extent of growth: maximal OD630 over 24 hr divided by maximal OD of control (control = 1) ([1]; 10 μmol/ml): 0.8574
extent of growth: maximal OD630 over 24 hr divided by maximal OD of control (control = 1) ([1]; 20 μmol/ml): 0.8079
extent of growth: maximal OD630 over 24 hr divided by maximal OD of control (control = 1) ([1]; 25 μmol/ml): 0.7647
extent of growth: maximal OD630 over 24 hr divided by maximal OD of control (control = 1) ([2]; 5 μmol/ml): 0.6977
extent of growth: maximal OD630 over 24 hr divided by maximal OD of control (control = 1) ([2]; 10 μmol/ml): 0.7107
extent of growth: maximal OD630 over 24 hr divided by maximal OD of control (control = 1) ([2]; 20 μmol/ml): 0.7396
extent of growth: maximal OD630 over 24 hr divided by maximal OD of control (control = 1) ([2]; 25 μmol/ml): 0.7361
extent of growth: maximal OD630 over 24 hr divided by maximal OD of control (control = 1) ([3]; 5 μmol/ml): 1.1065
extent of growth: maximal OD630 over 24 hr divided by maximal OD of control (control = 1) ([3]; 10 μmol/ml): 1.0553
extent of growth: maximal OD630 over 24 hr divided by maximal OD of control (control = 1) ([3]; 20 μmol/ml): 0.9645
extent of growth: maximal OD630 over 24 hr divided by maximal OD of control (control = 1) ([3]; 25 μmol/ml): 0.9449
extent of growth: maximal OD630 over 24 hr divided by maximal OD of control (control = 1) ([4]; 5 μmol/ml): 0.9519
extent of growth: maximal OD630 over 24 hr divided by maximal OD of control (control = 1) ([4]; 10 μmol/ml): 0.9564
extent of growth: maximal OD630 over 24 hr divided by maximal OD of control (control = 1) ([4]; 20 μmol/ml): 0.9230
extent of growth: maximal OD630 over 24 hr divided by maximal OD of control (control = 1) ([4]; 25 μmol/ml): 0.9158
extent of growth: maximal OD630 over 24 hr divided by maximal OD of control (control = 1) ([5]; 5 μmol/ml): 0.9359
extent of growth: maximal OD630 over 24 hr divided by maximal OD of control (control = 1) ([5]; 10 μmol/ml): 0.9395
extent of growth: maximal OD630 over 24 hr divided by maximal OD of control (control = 1) ([5]; 20 μmol/ml): 0.9136
extent of growth: maximal OD630 over 24 hr divided by maximal OD of control (control = 1) ([5]; 25 μmol/ml): 0.8905
extent of growth: maximal OD630 over 24 hr divided by maximal OD of control (control = 1) ([6]; 5 μmol/ml): 0.9430
extent of growth: maximal OD630 over 24 hr divided by maximal OD of control (control = 1) ([6]; 10 μmol/ml): 0.9489
extent of growth: maximal OD630 over 24 hr divided by maximal OD of control (control = 1) ([6]; 20 μmol/ml): 0.9512
extent of growth: maximal OD630 over 24 hr divided by maximal OD of control (control = 1) ([6]; 25 μmol/ml): 0.9518
extent of growth: maximal OD630 over 24 hr divided by maximal OD of control (control = 1) ([7]; 5 μmol/ml): 1.0172
extent of growth: maximal OD630 over 24 hr divided by maximal OD of control (control = 1) ([7]; 10 μmol/ml): 1.0190
extent of growth: maximal OD630 over 24 hr divided by maximal OD of control (control = 1) ([7]; 20 μmol/ml): 1.0051
extent of growth: maximal OD630 over 24 hr divided by maximal OD of control (control = 1) ([7]; 25 μmol/ml): 1.0000
extent of growth: maximal OD630 over 24 hr divided by maximal OD of control (control = 1) ([8]; 5 μmol/ml): 0.9888
extent of growth: maximal OD630 over 24 hr divided by maximal OD of control (control = 1) ([8]; 10 μmol/ml): 0.9732
extent of growth: maximal OD630 over 24 hr divided by maximal OD of control (control = 1) ([8]; 20 μmol/ml): 0.9751
extent of growth: maximal OD630 over 24 hr divided by maximal OD of control (control = 1) ([8]; 25 μmol/ml): 0.9954
extent of growth: maximal OD630 over 24 hr divided by maximal OD of control (control = 1) ([9]; 5 μmol/ml): 0.9323
extent of growth: maximal OD630 over 24 hr divided by maximal OD of control (control = 1) ([9]; 10 μmol/ml): 0.9359
extent of growth: maximal OD630 over 24 hr divided by maximal OD of control (control = 1) ([9]; 20 μmol/ml): 0.9286
extent of growth: maximal OD630 over 24 hr divided by maximal OD of control (control = 1) ([9]; 25 μmol/ml): 0.9460
extent of growth: maximal OD630 over 24 hr divided by maximal OD of control (control = 1) ([10]; 5 μmol/ml): 0.9429
extent of growth: maximal OD630 over 24 hr divided by maximal OD of control (control = 1) ([10]; 10 μmol/ml): 0.9536
extent of growth: maximal OD630 over 24 hr divided by maximal OD of control (control = 1) ([10]; 20 μmol/ml): 0.8540
extent of growth: maximal OD630 over 24 hr divided by maximal OD of control (control = 1) ([10]; 25 μmol/ml): 0.9077
extent of growth: maximal OD630 over 24 hr divided by maximal OD of control (control = 1) ([11]; 5 μmol/ml): 1.0200
extent of growth: maximal OD630 over 24 hr divided by maximal OD of control (control = 1) ([11]; 10 μmol/ml): 1.0126
extent of growth: maximal OD630 over 24 hr divided by maximal OD of control (control = 1) ([11]; 20 μmol/ml): 0.9758
extent of growth: maximal OD630 over 24 hr divided by maximal OD of control (control = 1) ([11]; 25 μmol/ml): 0.9855
extent of growth: maximal OD630 over 24 hr divided by maximal OD of control (control = 1) ([12]; 5 μmol/ml): 0.9301
extent of growth: maximal OD630 over 24 hr divided by maximal OD of control (control = 1) ([12]; 10 μmol/ml): 0.9360
extent of growth: maximal OD630 over 24 hr divided by maximal OD of control (control = 1) ([12]; 20 μmol/ml): 0.9087
extent of growth: maximal OD630 over 24 hr divided by maximal OD of control (control = 1) ([12]; 25 μmol/ml): 0.9224
extent of growth: maximal OD630 over 24 hr divided by maximal OD of control (control = 1) ([13]; 5 μmol/ml): 0.8701
extent of growth: maximal OD630 over 24 hr divided by maximal OD of control (control = 1) ([13]; 10 μmol/ml): 0.8749
extent of growth: maximal OD630 over 24 hr divided by maximal OD of control (control = 1) ([13]; 20 μmol/ml): 0.8545
extent of growth: maximal OD630 over 24 hr divided by maximal OD of control (control = 1) ([13]; 25 μmol/ml): 0.8789
extent of growth: maximal OD630 over 24 hr divided by maximal OD of control (control = 1) ([14]; 5 μmol/ml): 0.9050
extent of growth: maximal OD630 over 24 hr divided by maximal OD of control (control = 1) ([14]; 10 μmol/ml): 0.9049
extent of growth: maximal OD630 over 24 hr divided by maximal OD of control (control = 1) ([14]; 20 μmol/ml): 0.8987
extent of growth: maximal OD630 over 24 hr divided by maximal OD of control (control = 1) ([14]; 25 μmol/ml): 0.8933
extent of growth: maximal OD630 over 24 hr divided by maximal OD of control (control = 1) ([15]; 5 μmol/ml): 0.9921
extent of growth: maximal OD630 over 24 hr divided by maximal OD of control (control = 1) ([15]; 10 μmol/ml): 0.9622
extent of growth: maximal OD630 over 24 hr divided by maximal OD of control (control = 1) ([15]; 20 μmol/ml): 0.8975
extent of growth: maximal OD630 over 24 hr divided by maximal OD of control (control = 1) ([15]; 25 μmol/ml): 0.8423
